The source made the active and inactive calls. The rule behind the calls is not given here.
Tests used:
[1] = target: Beta-galactosidase (Escherichia coli K-12) (UniProt P00722); test: Inhibition of Escherichia coli beta galactosidase at 0.1 mM
[2] = target: T1, Tissue alpha-L-fucosidase (Bos taurus) (UniProt Q2KIM0); test: Inhibition of bovine kidney alpha L-fucosidase at 0.1 mM
T1 sequence (whole entry): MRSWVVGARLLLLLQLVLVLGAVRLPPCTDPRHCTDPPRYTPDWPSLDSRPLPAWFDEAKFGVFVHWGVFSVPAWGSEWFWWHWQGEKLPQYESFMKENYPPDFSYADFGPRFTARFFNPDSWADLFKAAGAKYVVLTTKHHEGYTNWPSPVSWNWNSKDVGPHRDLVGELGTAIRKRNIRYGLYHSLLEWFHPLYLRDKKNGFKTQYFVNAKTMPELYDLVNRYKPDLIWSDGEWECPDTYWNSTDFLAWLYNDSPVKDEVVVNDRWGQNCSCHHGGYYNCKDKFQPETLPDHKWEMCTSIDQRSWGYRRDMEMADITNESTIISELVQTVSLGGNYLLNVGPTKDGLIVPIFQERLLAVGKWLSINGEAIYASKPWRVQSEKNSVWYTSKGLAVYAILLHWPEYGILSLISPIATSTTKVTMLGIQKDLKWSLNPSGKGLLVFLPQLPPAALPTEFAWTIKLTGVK

[3] = test system: Saccharomyces cerevisiae; test: Inhibition of yeast maltase at 0.1 mM
[4] = test system: Prunus dulcis; test: Inhibition of almond beta glucosidase at 0.1 mM
[5] = test system: Aspergillus niger; test: Inhibition of Aspergillus niger amyloglucosidase at 0.1 mM
[6] = target: Beta-galactosidase (Escherichia coli K-12) (UniProt P00722); test: Inhibition of Escherichia coli beta galactosidase at 1 mM
[7] = target: T1, Tissue alpha-L-fucosidase (Bos taurus); test: Inhibition of bovine kidney alpha L-fucosidase at 1 mM
[8] = target: T2, Tissue alpha-L-fucosidase (Bos taurus, UniProt Q2KIM0); test: Inhibition of bovine kidney alpha L-fucosidase
T2 sequence (Q2KIM0 whole entry): T1 sequence (whole entry)

[9] = test system: Saccharomyces cerevisiae; test: Inhibition of yeast maltase at 1 mM
[10] = test system: Prunus dulcis; test: Inhibition of almond beta glucosidase at 1 mM
[11] = test system: Aspergillus niger; test: Inhibition of Aspergillus niger amyloglucosidase at 1 mM

Sequence of Beta-galactosidase (Escherichia coli K-12) (P00722 whole entry): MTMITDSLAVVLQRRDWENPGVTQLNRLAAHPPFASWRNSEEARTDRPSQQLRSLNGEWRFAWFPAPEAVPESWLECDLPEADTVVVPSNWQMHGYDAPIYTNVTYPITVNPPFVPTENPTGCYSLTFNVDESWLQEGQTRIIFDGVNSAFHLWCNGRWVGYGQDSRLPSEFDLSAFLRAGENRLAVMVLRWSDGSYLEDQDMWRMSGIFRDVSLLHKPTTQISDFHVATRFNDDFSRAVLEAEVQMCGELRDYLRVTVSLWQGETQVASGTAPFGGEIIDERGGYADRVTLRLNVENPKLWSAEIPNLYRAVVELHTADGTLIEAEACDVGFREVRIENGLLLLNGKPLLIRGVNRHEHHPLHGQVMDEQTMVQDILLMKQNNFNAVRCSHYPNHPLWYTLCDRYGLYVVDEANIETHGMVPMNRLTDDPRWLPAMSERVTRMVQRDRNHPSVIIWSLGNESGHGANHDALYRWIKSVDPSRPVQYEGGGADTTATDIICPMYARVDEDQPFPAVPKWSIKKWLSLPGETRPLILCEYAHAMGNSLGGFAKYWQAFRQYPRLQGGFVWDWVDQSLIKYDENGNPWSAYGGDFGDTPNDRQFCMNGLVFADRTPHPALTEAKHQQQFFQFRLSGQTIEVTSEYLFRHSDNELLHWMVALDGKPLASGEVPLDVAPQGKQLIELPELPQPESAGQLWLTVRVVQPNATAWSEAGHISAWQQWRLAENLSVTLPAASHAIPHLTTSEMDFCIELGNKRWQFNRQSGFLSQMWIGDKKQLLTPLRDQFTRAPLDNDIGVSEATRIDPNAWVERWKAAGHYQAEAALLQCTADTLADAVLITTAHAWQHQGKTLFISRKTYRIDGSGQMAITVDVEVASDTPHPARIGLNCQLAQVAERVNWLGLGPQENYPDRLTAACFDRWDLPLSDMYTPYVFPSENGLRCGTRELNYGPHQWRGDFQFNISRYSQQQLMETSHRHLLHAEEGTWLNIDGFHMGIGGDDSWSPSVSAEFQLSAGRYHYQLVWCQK

inhibition [1] | inhibition [2] | inhibition [3] | inhibition [4] | inhibition [5] | inhibition [6] | inhibition [7] | IC50 [8] | Ki [8] | inhibition [9] | inhibition [10] | inhibition [11] | Compound
inactive | inactive | inactive | inactive | inactive | – | – | – | – | – | – | – | C[C@@H]1[C@@H](O)[C@@H](O)[C@H](CNC(=O)c2ccc(-c3ccccc3)cc2)NN1C(=O)OCc1ccccc1
– | – | – | – | – | inactive | 97% | 30 µM | 4.2 µM | inactive | inactive | inactive | C[C@@H]1NN[C@@H](CO)[C@H](O)[C@@H]1O
– | – | – | – | – | inactive | 27% | – | – | inactive | inactive | inactive | C[C@@H]1[C@@H](O)[C@@H](O)[C@H](CO)NN1C(=O)OCc1ccccc1
– | – | – | – | – | inactive | 77% | 535 µM | – | inactive | inactive | inactive | C[C@@H]1NN[C@@H](CNC(=O)[C@@H](N)CCCCN)[C@H](O)[C@@H]1O
– | – | – | – | – | inactive | 54% | – | – | inactive | inactive | inactive | C[C@@H]1[C@@H](O)[C@@H](O)[C@H](CN)NN1C(=O)OCc1ccccc1
– | 5% | – | – | – | inactive | – | – | – | inactive | inactive | inactive | CCCCCCCCCCCC(=O)NC[C@@H]1NN(C(=O)OCc2ccccc2)[C@@H](C)[C@@H](O)[C@H]1O
– | – | – | – | – | inactive | 35% | – | – | inactive | inactive | inactive | C[C@H]1[C@@H](O)[C@@H](O)[C@H](CO)NN1C(=O)OCc1ccccc1
– | – | – | – | – | inactive | 17% | – | – | inactive | 23% | inactive | C[C@H]1NN[C@@H](CO)[C@H](O)[C@@H]1O
– | – | – | – | – | inactive | inactive | – | – | inactive | inactive | inactive | C[C@H]1NN[C@@H](CNC(=O)[C@@H](N)Cc2ccccc2)[C@H](O)[C@@H]1O
– | – | – | – | – | inactive | 53% | – | – | inactive | inactive | inactive | C[C@H]1NN[C@@H](CNC(=O)c2ccc(-c3ccccc3)cc2)[C@H](O)[C@@H]1O
– | – | – | – | – | inactive | 77% | – | – | inactive | inactive | inactive | C[C@H]1[C@@H](O)[C@@H](O)[C@H](CNC(=O)[C@@H](N)CCCCN)NN1C(=O)OCc1ccccc1
– | – | – | – | – | inactive | 70% | – | – | 51% | inactive | inactive | CCCCCCCCCCCC(=O)NC[C@@H]1NN[C@@H](C)[C@@H](O)[C@H]1O
– | – | – | – | – | inactive | 44% | – | – | inactive | inactive | inactive | C[C@@H]1NN[C@@H](CN)[C@H](O)[C@@H]1O
inactive | 85% | inactive | inactive | 21% | – | – | 8.6 µM | 1 µM | – | – | – | C[C@@H]1NN[C@@H](CNC(=O)c2ccc(-c3ccccc3)cc2)[C@H](O)[C@@H]1O
– | – | – | – | – | inactive | 40% | – | – | inactive | inactive | 24% | CCCCCCCCCCCC(=O)NC[C@@H]1NN[C@H](C)[C@@H](O)[C@H]1O
– | – | – | – | – | inactive | 16% | – | – | inactive | inactive | inactive | C[C@@H]1[C@@H](O)[C@@H](O)[C@H](CNC(=O)[C@@H](N)Cc2ccccc2)NN1C(=O)OCc1ccccc1
– | – | – | – | – | inactive | 65% | – | – | inactive | inactive | inactive | C[C@H]1[C@@H](O)[C@@H](O)[C@H](CNC(=O)[C@@H](N)Cc2ccccc2)NN1C(=O)OCc1ccccc1
– | – | – | – | – | 32% | 92% | 117 µM | – | inactive | inactive | inactive | C[C@H]1[C@@H](O)[C@@H](O)[C@H](CN)NN1C(=O)OCc1ccccc1
– | – | – | – | – | inactive | 53% | – | – | inactive | inactive | inactive | C[C@H]1NN[C@@H](CN)[C@H](O)[C@@H]1O
– | – | – | – | – | inactive | 82% | 283 µM | – | inactive | inactive | inactive | C[C@@H]1NN[C@@H](CNC(=O)[C@@H](N)Cc2ccccc2)[C@H](O)[C@@H]1O

Reference: ChEMBL document CHEMBL1177655, “Synthesis and inhibitory activities of novel C-3 substituted azafagomines: a new type of selective inhibitors of α-L-fucosidases” (Bioorg Med Chem, 2010)
